Values joined by “and” are separate entries in the source; they are usually repeats but may differ in a detail not shown here. Identical values can stand only once.
Columns and labels:
[1] = target: T1, mouse GPR139 (Mus musculus, UniProt Q80UC8); assay: GTPγS binding dose response study, mouse GPR139 co-transfected with GO2Q into COS7 cells; assay type: biochemical; details: mouse GPR139, FIG. 2C and 2D
T1 construct: expressed in transfected cells; host or cells: COS7 (membranes)
T1 sequence (Q80UC8 1-345): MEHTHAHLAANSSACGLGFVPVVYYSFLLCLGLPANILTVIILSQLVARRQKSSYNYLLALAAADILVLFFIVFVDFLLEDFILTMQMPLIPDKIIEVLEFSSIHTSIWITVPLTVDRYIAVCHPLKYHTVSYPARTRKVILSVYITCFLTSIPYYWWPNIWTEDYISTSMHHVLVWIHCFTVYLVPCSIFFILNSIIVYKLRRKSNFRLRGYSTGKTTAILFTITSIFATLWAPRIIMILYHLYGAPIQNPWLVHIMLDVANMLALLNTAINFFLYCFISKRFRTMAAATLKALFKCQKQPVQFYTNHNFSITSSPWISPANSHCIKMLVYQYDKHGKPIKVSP
From the text: (§1) FIG. 2-FIG. 2F: Tryptophan, phenylalanine, and their derivatives activate GPR139. Human (FIG. 2A and FIG. 2B) or mouse (FIG. 2C and FIG. 2D) GPR139 were co-transfected with chimeric G-protein GO2Q into COS7 cells. Cell membranes from transfected cells were used in GTPγS binding studies using various ligands at different concentrations to stimulate GPR139. FIG. 2E and FIG. 2F show control experiments in the dose response studies of Example 1.

[2] = target: T2, N-terminally V-tagged mouse GPR139 (Mus musculus, UniProt Q80UC8); assay: GPR139 internalization in transiently transfected HEK-293 cells; assay type: cell-based; details: FIG. 4
T2 construct: V tag (printed 'V-tagged' and 'VS-tagged'); expressed in transfected cells; host or cells: HEK-293 (transient)
T2 sequence (Q80UC8 1-345): T1 sequence (Q80UC8 1-345)
From the text: Many GPCRs are internalize by the cell when they are activated.

[3] = target: T3, GPR139 (Homo sapiens, UniProt Q6DWJ6); assay: GTPγS binding dose response study, human GPR139 co-transfected with GO2Q into COS7 cells; assay type: biochemical; parameters: expressed in transfected cells; host or cells: COS7 (membranes); details: human GPR139, FIG. 2A and 2B
T3 sequence (Q6DWJ6 1-353): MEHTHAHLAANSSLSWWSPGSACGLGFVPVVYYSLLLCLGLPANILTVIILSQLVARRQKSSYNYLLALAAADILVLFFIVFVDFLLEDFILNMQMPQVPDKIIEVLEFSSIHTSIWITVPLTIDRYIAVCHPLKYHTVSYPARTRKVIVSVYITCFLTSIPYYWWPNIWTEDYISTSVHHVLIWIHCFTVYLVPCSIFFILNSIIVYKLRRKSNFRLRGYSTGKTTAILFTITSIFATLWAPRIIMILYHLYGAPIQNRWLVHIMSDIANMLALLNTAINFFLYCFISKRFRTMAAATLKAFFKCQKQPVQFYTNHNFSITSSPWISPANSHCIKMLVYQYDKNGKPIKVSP
From the text: as §1

[4] = target: T3, GPR139; assay: Calcium mobilization assay (FLIPR), GPR139 expressed in HEK293 cells; assay type: cell-based; parameters: expressed in transfected cells; host or cells: HEK293 (transient); details: for EC50: GPR139 expressing HEK293 cells, read-out: EC50 (half maximal effective concentration), calcium mobilization; for Stimulation of calcium mobilization: human GPR139 transiently expressed in HEK293 cells, FIG. 3
Protocol: FIG. 3A and FIG. 3B: Provides the results of experiments conducted to determine whether Trp and its derivatives (FIG. 3A) and Phe and its derivatives (FIG. 3B) stimulate Ca^2+ mobilization in HEK293 cells expressing GPR139.
The active compounds were also tested in a calcium mobilization assay (FLIPR® assay). For these experiments human GPR139 was transiently expressed in HEK293 cells and calcium mobilization was stimulated using L-Trp, L-Phe or their derivatives. […] The concentrations of L-Trp and L-Phe in many cell culture media (for instance DMEM is about 80 μM and 750 μM respectively) are close to the EC50 values of L-Trp and L-Phe for GPR139. […] This may explain why GPR139 appeared constitutively active when recombinantly expressed in mammalian cells.
About 300 additional phenylalanine analogues have been tested for GPR139 activation using a calcium mobilization (FLIPR®) assay. The results of these experiments indicate that many of these analogues can also activate GPR139. Table 4 lists certain phenylalanine analogues that have been determined to activate GPR139 by calcium mobilization at a concentration of 300 μM (calcium mobilization is expressed as percentage of that observed for L-phenylalanine).

[5] = target: T3, GPR139; assay: GTPγS binding assay, single-concentration screen, COS7 membranes co-expressing GPR139 and GO2Q; assay type: biochemical; parameters: expressed in transfected cells; host or cells: COS7 (membranes); details: for Activation of GPR139 in the GTPγS binding assay: 1 mM; for Activation levels of GPR139 (GTPγS binding), GPR139-GO2Q: 1 mM final concentration, COS7 membranes co-expressing GPR139 and GO2Q, single wells of triplicate
Protocol: (§2) In order identify the ligands for GPR139 two improvements in the detection assay were made to allow for the ligands to be detected. First, we chose to use a GTPγS binding assay instead of using live cultured cells. The GTPγS binding assay is a cell free system that uses the cell membrane of the cell(s) of interest rather than the live cell(s). One advantage of this assay is that potential ligands present in the cell culture media are washed away when the cell membrane is prepared. This reduces the basal level of signal and increase the chance of detecting receptor ligands when assessing compounds that activate the receptor. Second, a GO2Q chimeric G-protein was created to be co-expressed with GPR139 in order to increase the signal-to-noise ratio in the GTPγS binding assay. Historically, the Gi, Go coupled GPCRs offer much greater signal-to-noise ratio in GTPγS binding studies. For Gs and Gq coupled GPCRs, although ligand-stimulated specific signals can be detected in a GTPγS binding assay, the signal-to-noise ratios are often very small. To address this a chimeric GO2-Gq chimeric G-protein, GO2Q, with the N-terminus from Go2 protein and the C-terminus from Gq protein.
(§3) To test for compounds that activate GPR139, different amino acids and their derivatives (Table 2) were tested as ligands in the GTPγS binding assay using cell membranes from COS7 cells co-expressing GPR139 and GO2Q. Cell membrane from COS7 cells expressing GO2Q alone or co-expressing other GPCRs were also tested in GTPγS binding assay in parallel as controls. Each compound was tested in triplicate.

[6] = system: GPR21, GPR52, GPCR119, GPCR132, GPCR134, or GPR182; assay: GTPγS binding assay, control membranes co-expressing GO2Q and other GPCRs (data not shown); assay type: biochemical
Protocol: as §3

[7] = system: GO2Q alone; assay: GTPγS binding assay, control COS7 membranes expressing GO2Q alone (Ct-GO2Q); assay type: biochemical; details: for Activation levels (GTPγS binding), Ct-GO2Q: 1 mM final concentration, COS7 membranes expressing GO2Q alone, single wells of triplicate; for Activation of membranes from cells expressing GO2Q alone: same assay, 1 mM
Protocol: as §2, §3

Row | SMILES | Dose-responsive activation of GPR139 (GTPγS binding) [1] | Internalization of tagged GPR139 upon stimulation [2] | Dose-responsive activation of GPR139 (GTPγS binding) [3] | EC50 [4] [µM] | Stimulation of calcium mobilization [4] | Activation of GPR139 in the GTPγS binding assay [5] | Activation levels of GPR139 (GTPγS binding), GPR139-GO2Q [5] | Activation of membranes from cells co-expressing GO2Q and other GPCRs [6] | Activation levels (GTPγS binding), Ct-GO2Q [7] | Activation of membranes from cells expressing GO2Q alone [7]
1 | N[C@@H](Cc1ccccc1)C(=O)O [Phe, L-phenylalanine] | specifically activate GPR139 in a dose-responsive manner | internalized | specifically activate GPR139 in a dose-responsive manner | 100 to 200 | specifically stimulate calcium mobilization | able to activate GPR139 | 8697 and 6925 and 8417 | did not activate | 2190 and 2215 and 2345 | did not activate
2 | N[C@@H](Cc1c[nH]c2ccccc12)C(=O)O [Trp, L-tryptophan] | specifically activate GPR139 in a dose-responsive manner | internalized | specifically activate GPR139 in a dose-responsive manner | 100 to 200 | specifically stimulate calcium mobilization | able to activate GPR139 | 8141 and 9121 and 9149 | did not activate | 2172 and 2234 and 2272 | did not activate

— patent publication US20140336216A1, “PHYSIOLOGICAL LIGANDS FOR GPR139” (Janssen Pharmaceutica NV, priority 2013, published 2014)
